Results: paper PMC12352620, “Fragment-based discovery of dual ligand pharmacophores for lipid-sensing transcription factors for designed polypharmacology” (RSC Medicinal Chemistry, 2025)

Assays:
Format in all cases: cell-based
CAR = experiment: Gal4-hybrid reporter gene assay CAR (selectivity); conditions: mean, n ≥ 3, Fig. 8
Description: (§1) NR modulation was determined as described previously[45] in Gal4 hybrid reporter gene assays in HEK293T cells (German Collection of Microorganisms and Cell Culture GmbH, DSMZ) using pFR-Luc (Stratagene, La Jolla, CA, USA; reporter), pRL-SV40 (Promega, Madison, WI, USA; internal control) and the hybrid receptor clones pFA-CMV-hTHRα-LBD,[46] pFA-CMV-hPPARγ-LBD,[47] pFA-CMV-hFXR-LBD,[48] and pFA-CMV-hRXRα-LBD,[49] coding for the hinge region and ligand binding domain of the canonical isoform of the respective NR. Cells were cultured in Dulbecco's modified Eagle's medium (DMEM), high glucose supplemented with 10% fetal calf serum (FCS), sodium pyruvate (1 mM), penicillin (100 U mL^−1), and streptomycin (100 μg mL^−1) at 37 °C and 5% CO2 and seeded in 96-well plates (3 × 10^4 cells per well). After 24 h, medium was changed to Opti-MEM without supplements and cells were transiently transfected using Lipofectamine LTX reagent (Invitrogen, Carlsbad, CA, USA) according to the manufacturer's protocol. Five hours after transfection, cells were incubated with the test compounds in Opti-MEM supplemented with penicillin (100 U mL^−1), streptomycin (100 μg mL^−1) and 0.1% DMSO for 16 h before luciferase activity was measured using the Dual-Glo Luciferase Assay System (Promega) according to the manufacturer's protocol on a Tecan Spark luminometer (Tecan Deutschland GmbH, Crailsheim, Germany). Firefly luminescence was divided by Renilla luminescence and multiplied by 1000 resulting in relative light units (RLU) to normalize for transfection efficiency and cell growth. Fold activation was obtained by dividing the mean RLU of test compound by the mean RLU of the untreated control. All samples were tested in at least three biologically independent experiments in duplicates. For dose–response curve fitting and calculation of EC50 values, the equation “[agonist] vs. response − variable slope (four parameters)” was used in GraphPad Prism (version 7.00, GraphPad Software, La Jolla, CA, USA). For selectivity profiling, the hybrid reporter gene assay was performed with Gal4 fusion receptor plasmids for RARα, PPARα, PPARδ, VDR, CAR and LXRα. The following reference agonists were used: triiodothyronine (1 μM, THR), all-trans retinoic acid (1 μM, RAR), GW7647 (1 μM, PPARα), pioglitazone (1 μM, PPARγ), L165041 (1 μM, PPARδ), calcitriol (1 μM, VDR), CITCO (1 μM, CAR), T0901317 (1 μM, LXR), GW4064 (1 μM, FXR), bexarotene (1 μM, RXR).

PPARα = target: T1, PPARα (Homo sapiens, UniProt Q07869); experiment: Gal4-hybrid reporter gene assay PPARα (selectivity); conditions: mean, n ≥ 3, Fig. 8
T1 construct: expressed in transfected cells; host or cells: HEK293T
T1 sequence (Q07869 167-468 limits assumed): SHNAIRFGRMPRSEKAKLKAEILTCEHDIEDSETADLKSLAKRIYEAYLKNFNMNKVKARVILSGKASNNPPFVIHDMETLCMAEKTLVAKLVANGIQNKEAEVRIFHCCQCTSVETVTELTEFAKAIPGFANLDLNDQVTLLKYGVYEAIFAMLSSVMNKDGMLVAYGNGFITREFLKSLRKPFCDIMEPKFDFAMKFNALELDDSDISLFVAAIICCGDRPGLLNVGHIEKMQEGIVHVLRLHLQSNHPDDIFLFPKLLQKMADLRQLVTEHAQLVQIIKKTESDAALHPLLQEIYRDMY
Description: as §1

FXR = target: T2, FXR (Homo sapiens, UniProt Q96RI1); experiment: Gal4-hybrid reporter gene assay FXR; conditions: n ≥ 3; for fold act. FXR: mean, Fig. 8; for EC50 / EC50 FXR: HEK293T, Gal4-hybrid reporter, Inactive = tested 1–300 μM; for EC50 / max. fold activation FXR / EC50 FXR: mean ± S.E.M.; for max. fold activation FXR: maximum reporter activation vs DMSO (0.1%) treated cells
T2 construct: expressed in transfected cells; host or cells: HEK293T
T2 sequence (Q96RI1 262-486 limits assumed): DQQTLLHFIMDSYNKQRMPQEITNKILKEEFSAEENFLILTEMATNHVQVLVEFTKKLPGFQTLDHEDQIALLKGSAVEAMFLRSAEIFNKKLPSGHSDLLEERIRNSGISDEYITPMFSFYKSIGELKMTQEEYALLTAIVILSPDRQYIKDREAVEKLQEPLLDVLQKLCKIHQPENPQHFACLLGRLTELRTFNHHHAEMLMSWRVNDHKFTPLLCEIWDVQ
Description: as §1

PPARγ = target: T3, PPARγ (Homo sapiens, UniProt P37231); experiment: Gal4-hybrid reporter gene assay PPARγ; conditions: n ≥ 3; for fold act. PPARγ: mean, Fig. 8; for EC50: HEK293T, Gal4-hybrid reporter, Inactive = tested 1–300 μM; for EC50 / max. fold activation PPARγ: mean ± S.E.M.; for max. fold activation PPARγ: maximum reporter activation vs DMSO (0.1%) treated cells
T3 construct: expressed in transfected cells; host or cells: HEK293T
T3 sequence (P37231 238-503 limits assumed): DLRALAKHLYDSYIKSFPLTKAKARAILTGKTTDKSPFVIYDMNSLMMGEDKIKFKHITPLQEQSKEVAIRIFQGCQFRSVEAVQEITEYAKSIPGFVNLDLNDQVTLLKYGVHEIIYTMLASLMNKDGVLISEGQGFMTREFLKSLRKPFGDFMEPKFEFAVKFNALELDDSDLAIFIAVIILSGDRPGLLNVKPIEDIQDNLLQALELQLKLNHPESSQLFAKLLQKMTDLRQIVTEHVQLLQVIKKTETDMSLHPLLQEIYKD
Description: as §1

VDR = target: T4, VDR (Homo sapiens, UniProt P11473); experiment: Gal4-hybrid reporter gene assay VDR (selectivity); conditions: mean, n ≥ 3, Fig. 8
T4 construct: expressed in transfected cells; host or cells: HEK293T
T4 sequence (P11473 97-427 limits assumed): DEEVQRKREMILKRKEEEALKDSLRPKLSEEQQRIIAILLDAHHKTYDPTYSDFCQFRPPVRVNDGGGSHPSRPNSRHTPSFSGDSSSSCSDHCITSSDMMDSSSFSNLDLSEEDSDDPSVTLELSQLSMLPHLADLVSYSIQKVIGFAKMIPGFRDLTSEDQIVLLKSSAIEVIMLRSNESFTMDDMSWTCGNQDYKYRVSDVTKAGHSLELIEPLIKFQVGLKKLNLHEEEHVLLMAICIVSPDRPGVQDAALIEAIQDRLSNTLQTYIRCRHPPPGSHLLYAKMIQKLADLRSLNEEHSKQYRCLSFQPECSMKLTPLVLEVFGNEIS
Description: as §1

LXRα = target: T5, LXRα (Homo sapiens, UniProt Q13133); experiment: Gal4-hybrid reporter gene assay LXRα (selectivity); conditions: mean, n ≥ 3, Fig. 8
T5 construct: expressed in transfected cells; host or cells: HEK293T
T5 sequence (Q13133 171-447 limits assumed): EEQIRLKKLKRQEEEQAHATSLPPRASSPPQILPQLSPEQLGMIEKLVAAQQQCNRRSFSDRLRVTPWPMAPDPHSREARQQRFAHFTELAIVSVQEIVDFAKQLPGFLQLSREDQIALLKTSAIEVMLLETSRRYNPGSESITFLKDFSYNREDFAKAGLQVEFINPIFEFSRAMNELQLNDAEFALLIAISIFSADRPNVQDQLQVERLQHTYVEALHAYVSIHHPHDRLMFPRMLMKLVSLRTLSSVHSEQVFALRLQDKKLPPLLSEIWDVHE
Description: as §1

Row | Structure (SMILES) | EC50 (FXR) [µM] | max. fold activation FXR (FXR) | EC50 (PPARγ) [µM] | max. fold activation PPARγ (PPARγ) | fold act. CAR (CAR; 30 μM) [fold] | fold act. PPARα (PPARα; 30 μM) [fold] | fold act. FXR (FXR; 30 μM) [fold] | EC50 FXR (FXR) | fold act. PPARγ (PPARγ; 30 μM) [fold] | fold act. VDR (VDR; 30 μM) [fold] | fold act. LXR (LXRα; 30 μM) [fold] | further results
1 | CCOc1ccc(-c2cc(C(=O)O)co2)cc1 [3.1, 5-(4-Ethoxyphenyl)furan-3-carboxylic acid] | 1.3 ± 0.3 | (6.4 ± 0.3-fold) | 3 ± 1 | (6.4 ± 0.6-fold) | – | – | – | – | – | – | – | fold act. CAR (CAR; 10 μM): 3 fold; fold act. PPARα (PPARα; 10 μM): 5 fold; fold act. FXR (FXR; 10 μM): 6 fold; fold act. PPARγ (PPARγ; 10 μM): 6 fold; fold act. VDR (VDR; 10 μM): 3 fold; fold act. LXR (LXRα; 10 μM): 3 fold
2 | O=C(O)/C=C/C(=O)c1ccc(Cl)cc1Cl [4.6, (E)-4-Oxo-4-(2,4-dichlorophenyl)but-2-enoic acid] | – | – | 20 ± 5 | (13 ± 2-fold) | 1 | 1 | 1 | Inactive | 9 | 1 | 1 | –
3 | O=C(O)/C=C/C(=O)c1ccc(-c2ccccc2)cc1 [4.7, (E)-4-([1,1′-Biphenyl]-4-yl)-4-oxobut-2-enoic acid] | – | – | 18 ± 4 | (33.4 ± 2.7-fold) | 2 | 6 | 1 | Inactive | 32 | 2 | 1 | –
4 | O=C(O)/C=C/C(=O)c1ccc2ccccc2c1 [4.8, (E)-4-Oxo-4-(naphthalen-2-yl)but-2-enoic acid] | 26 ± 4 | (7 ± 1-fold) | 27 ± 1 | (16.7 ± 0.5-fold) | – | – | – | – | – | – | – | fold act. CAR (CAR; 40 μM): 3 fold; fold act. PPARα (PPARα; 40 μM): 7 fold; fold act. FXR (FXR; 40 μM): 6 fold; fold act. PPARγ (PPARγ; 40 μM): 18 fold; fold act. VDR (VDR; 40 μM): 3 fold; fold act. LXR (LXRα; 40 μM): 3 fold
